Series [1] concerns Candida albicans (CN1863). Put plainly: Antifungal screening, Candida albicans, broth and agar dilution assays. To be noted: Medium: Wellcotest sensitivity test agar plus 7% lysed horse blood. In kind it is cell-based. The text has this: Antifungal testing against Candida albicans (CN1863) was done with slight modifications using a combination of broth and agar dilution assays as outlined in Laboratory Handbook of Medical Mycology, Chapter 6, pages 441-446, M. R. McGinnis, Academic Press, New York, NY, 1980.
Medium: Wellcotest* sensitivity test agar plus 7% lysed horse blood.

Another series can be described thus: LD20 in the P388/0 test. The format is in vivo, CD2-F1 mice. To be noted: intraperitoneal, days 1, 5, 9; doses are on a mg/kg basis. The protocol: (§1) CD2-F1 mice, of the same sex, weighing 20±3 g, are used for this test. Control and test animals are injected intraperitoneally with a suspension of ~10^6 viable P388/0 tumor cells on day 0. In each test, several dose levels which bracket the LD20 of the compound are evaluated; each dose level group contains 6 animals. The test compounds are prepared either in physiologic saline containing 0.05% Tween 80 or distilled water containing 5% dextrose and are administered intraperitoneally on days 1, 5, and 9 relative to tumor implant. Doses are on a mg/kg basis according to individual animals' body weights. The day of death for each animal is recorded, the median identified for each group and the ratios of median survival time for treated (T)/control (C) groups are calculated. The criterion for activity is T/C×100≥120%.

A further series has as its system B16 cells. Put plainly: Melanotic Melanoma B16 test. Particulars: dosing as in P388/0 test, active if ≥125%. In kind it is in vivo, B6C3-F1 mice. From the text: (§2) Methods for evaluating the antitumor activity of these compounds are essentially those used in the Tumor Panel by the Development Therapeutics Program, Division of Cancer Treatment, National Cancer Institute, A. Goldin, et al., Methods in Cancer Research, Vol. XVI, p. 165, Academic Press (1979). Some modifications in dose level and schedule have been made to increase the testing efficiency.
B6C3-F1 mice of the same sex, weighing 20+3 g, are used for this test. A suspension of B16 cells is prepared from a non-necrotic portion of solid tumor tissue obtained from a passage mouse. One gram of tumour is homogenized in 9 mL ice-cold Earle's salts solution and filtered through 1000 mesh screen to remove debris. 0.5 mL of the resulting brei is injected intraperitoneally into each animal. Dosing is carried out as in the P388/0 and L1210 tests. Days of death are recorded for a 60 day period, and T/C ratio calculated as in the P388/0 and L1210 tests. The criterion for activity is T/C×100≥125%.

A short description of another series: LD50 Tests. Particulars: in vivo; IP single dose - CD1 Male Mouse. The text has this:
|(IP single dose - CD1 Male Mouse)

Another series has as its system Trichomonas vaginalis. As to the kind of experiment: Antiprotozoal testing, Trichomonas vaginalis (in vitro). Particulars: 40 mg/L, Stenton or Modified Diamond's medium, read-out: Result (screen code, inhibition). In kind it is cell-based. From the text:
Antiprotozoal testing against Trichomonas vaginalis was done using methods outlined by R. M. Michaels in Advances in Chemotherapy, 3, 39-108 (1968).
(Stenton or Modified Diamond's medium)

For series [2], the system named is Streptococcus pyogenes (CN10). Put plainly: Antibacterial testing, Streptococcus pyogenes, agar dilution assay. The format is cell-based. From the text: (§3) Antibacterial testing against Mycoplasma smegmatis (S3264) and Streptococcus pyogens (CN10) was done with slight modifications using standard agar dilution assays as outlined in Manual of Clinical Microbiology, Second Ed., E. H. Lennette, E. H. Spaulding and J. P. Truant Eds., American Society for Microbiology, Washington, DC, 1974.

In series [3] the test system is Mycoplasma smegmatis (S3264). Put plainly: Antibacterial screening, Mycoplasma smegmatis, agar dilution assay. In kind it is cell-based.
Excerpt: as §3

Series [4] relates to Nippostrongylus brasiliensis (Immature - free living stages). Put plainly: Anthelmintic screening, Nippostrongylus brasiliensis. The format is cell-based. From the text: Anthelmintic testing against Nippostrongylus brasiliensis was done using methods as outlined in D. C. Jenkins, R. Armitage, and T. S. Carrington, Zetschrift fur Parasitenkunde 63, 261-269 (1980).
Another series deals with Eimeria tenella. Put plainly: Antiprotozoal screening, Eimeria tenella (in vitro). In kind it is cell-based. Particulars: read-out: Result (screen code, inhibition). The text has this:
Antiprotozoal testing against Eimeria tenella was done using methods outlined in V. S. Latter and D. Wilson, Parasitology 79, 169 (1979).

A further series concerns L1210 cells. As to the kind of experiment: Lymphocytic Leukemia L1210 Test. The format is in vivo, CD-2-F1 mouse. Particulars: 150 mg/kg; protocol as P388/0 (intraperitoneal, days 1, 5, 9); active if ≥125%.
Excerpt: as §2, §1
The protocol for this test is identical to that for P388/0, except that the number of L1210 cells implanted on day 0 is ~105/mouse. […]

Another series has as its system Lewis Lung Carcinoma. Put plainly: Lewis Lung Carcinoma Test. The format is in vivo, mouse (BD-F1 mice; tumor from C57B1/6 mouse). To be noted: 150 mg/kg; administered as in P388/0 protocol; active if ≥140%.
Excerpt: as §2
This tumor arose spontaneously in the lung of a C57B1/6 mouse and is maintained by subcutaneous passage in that strain. The solid tumor is excised aseptically and placed in sterile saline. Pieces of viable tumor tissue are minced finely with scissors and forced through a 200 mesh stainless steel screen to disaggregate the tumor cells into a suspension. 10^6 Viable cells and injected intravenously into the tail vein of BD-F1, mice of the same sex weighing 20±3 g. In each test, several dose levels which bracket the LD20 for the compound are evaluated. Ten animals are included in each dose level group, and twenty animals in the untreated control group. The test compounds are prepared and aministered as in the P388/0 protocol. The day of death for each animal is recorded, the median identified for each group and the ratios of median survival time for treated (T)/control (C) groups are calculated. The criterion for activity is T/C×100≥140%.

A further series deals with P388/0 tumor cells. Put plainly: Lymphocytic Leukemia P388/0 Test. The format is in vivo, CD2-F1 mice. To be noted: median survival time; intraperitoneal, days 1, 5, 9; active if ≥120%; Optimal Dose (mg/kg): 2A 250; 2B 450; 3 120; 4 200; 5A 303; 6 366; 7 220; 8 300; 1A 300; 10 198; 11 300; 13 220; 15 555; 16 1013; 17B 250; 18 300; 19 40; 20G 125; 21C 168; 22D 180; 23B 18O.
Excerpt: as §2, §1

The source of these data is patent publication US4820873A, “Pyrene derivatives” (priority 1984, dated 1989).

Where a name gives a salt, the structure may show the parent alone. Where only a bound is given, the exact number is not on record here.

With `CCC(CO)(CO)NCc1ccc2ccc3cccc4ccc1c2c34` [Example 5A, 2-Ethyl-2-((1-pyrenylmethyl)amino)-1,3-propanediol hydrochloride], the MIC in series [1] came to 50 µg/mL; in [2] it was 3 µg/mL; in [3], 3 µg/mL; in [4], 100 µg/mL. Also, in “LD20 in the P388/0 test”, the LD20 is 225. In addition, in the series with B16 cells (225 mg/kg), the “T/C × 100% Excluding 60 day Survivors” value was “+159%”. The 50% lethal dose (LD50) in “LD50 Tests” came to 160 mg/kg. For the same compound, the inhibition at 40 µg/mL in the series with Trichomonas vaginalis lay within 51 to 75%.

In the case of `OCC(CO)(CO)NCc1ccc2ccc3cccc4ccc1c2c34` [Example 10, 2-Hydroxymethyl-2-((1-pyrenylmethyl)amino)-1,3-propanediol hydrochloride], the MIC in series [1] was greater than 50 µg/mL; in [2], 5 µg/mL; in [3], greater than 50 µg/mL; in series [4] it was no less than 50 µg/mL. The compound also returned an LD20 in the series “LD20 in the P388/0 test” of 215. Moreover, the “T/C × 100% Excluding 60 day Survivors” value in the series on B16 cells (150 mg/kg) was “+133%”. Also, the LD50 in the series “LD50 Tests” stood at 160 mg/kg. In the series with Eimeria tenella, the inhibition at 0.37 µg/mL was 76 to 100%.

Turning to `CC(CO)(CO)NCc1ccc2ccc3cccc4ccc1c2c34` [Example 1A, 2-methyl-2-((1-pyrenylmethyl)amino)-1,3-propanediol hydrochloride], the results for the MIC in series [1], in [3] and in series [4] were 50 µg/mL, no more than 5 µg/mL and 50 µg/mL, respectively. Further, the LD20 in the series “LD20 in the P388/0 test” is recorded as 375. Also, in “LD50 Tests”, the LD50 was determined as 350 mg/kg. The inhibition at 40 µg/mL in the series on Trichomonas vaginalis was 76 to 100%. Also, the “T/C × 100% Excluding 30 day Survivors” value in the series with L1210 cells was “+129%”.

For the compound `CC(CO)(CO)NCc1ccc2ccc3cccc4ccc1c2c34` [Example 1B, 2-methyl-2-((1-pyrenylmethyl)amino)-1,3-propanediol methanesulfonate], in the series on Lewis Lung Carcinoma, the “T/C × 100% Excluding 60 day Survivors” value is recorded as 208%.

“2-((6-Bromo-1-pyrenylmethyl)amino)-2-methyl-1,3-propanediol hydrochloride and 2-((8-Bromo-1-pyrenylmethyl)amino)-2-methyl-1,3-propanediol hydrochloride [Example 17B]”: in the series “LD20 in the P388/0 test”, the LD20 stood at 557. In addition, the “T/C × 100% (Excluding 30 Day Survivors)” value in the series on P388/0 tumor cells is recorded as “+135%”.
